Results as given in patent US4327097A, “Novel penicillins” (Toyama Chemical Co., Ltd., priority 1974, dated 1982).
Converted amounts (≈) assume the structure as drawn.

How the values were obtained:
Type in all cases: cell-based
[1] = tested on: Staphylococcus aureus 209p; test: MIC, plate method, standard strains; details: Table 3, standard strain, Heart infusion agar pH 7.4; unit assumed
Protocol: (§1) The minimum inhibitory concentration (MIC) was determined by the plate method disclosed in "Chemotherapy" (Japan), Vol. 16, (1968), pages 98-99. The culture medium used was a Heart infusion agar (pH 7.4). The number of the cells per plate used in the inoculum was 10^4 (10^6 cells/ml).

Escherichia coli NIHJ = test: MIC, plate method, standard strains; details: Table 3, standard strain; unit assumed
Protocol: as §1

Proteus vulgaris 3027 = test: MIC, plate method, standard strains; details: Table 3, standard strain; unit assumed
Protocol: as §1

Pseudomonas aeruginosa = test: MIC against clinical isolates; details: unit assumed
Klebsiella pneumoniae [2] = test: MIC, plate method, standard strains; details: Table 3, standard strain; unit assumed
Protocol: as §1

[3] = tested on: Pseudomonas aeruginosa I.F.O.; test: MIC, plate method, standard strains; details: Table 3, standard strain; unit assumed
Protocol: as §1

Shigella flexneri = test: MIC against clinical isolates; details: Table 5-5, clinical isolate; unit assumed
Protocol: as §1
(§2) MIC was determined in the same manner as in the preceding paragraph (1).

Shigella sonnei = test: MIC against clinical isolates; details: Table 5-5, clinical isolate; unit assumed
Protocol: as §1, §2

Staphylococcus aureus = test: MIC against clinical isolates; details: Table 5-1, clinical isolate; unit assumed
Escherichia coli = test: MIC against clinical isolates; details: Table 5-2, clinical isolate; unit assumed
Klebsiella pneumoniae [4] = test: MIC against clinical isolates; details: Table 5-4, clinical isolate; unit assumed

For `CC1(C)SC2C(NC(=O)C(NC(=O)N3CCN(C4CCCC4)C(=O)C3)c3ccccc3)C(=O)N2C1C(=O)O` (single isomer, unassigned) [Compound 32], the MIC Staphylococcus aureus 209p [1] was < 1.57 µg/mL and the MIC Esche--richin coil NIHJ (Escherichia coli NIHJ) was < 1.57 µg/mL.

`CC(=O)OCCN1CCN(C(=O)NC(C(=O)NC2C(=O)N3C2SC(C)(C)C3C(=O)O)c2ccccc2)C(=O)C1=O` (single isomer, unassigned) [Compound 41] was tested, and the MIC Staphylococcus aureus 209p [1] was < 1.57 µg/mL, the MIC Proteus vulgaris 3027 (Proteus vulgaris 3027) was < 1.57 µg/mL and the MIC Esche--richin coil NIHJ (Escherichia coli NIHJ) was < 1.57 µg/mL.

`C=CCN1CCN(C(=O)NC(C(=O)NC2C(=O)N3C2SC(C)(C)C3C(=O)O)c2ccccc2)C(=O)C1=O` (single isomer, unassigned) [Compound 42] was tested, and the MIC Proteus vulgaris 3027 (Proteus vulgaris 3027) was < 1.57 µg/mL and the MIC Esche--richin coil NIHJ (Escherichia coli NIHJ) was < 1.57 µg/mL.

In the case of `CC1(C)SC2C(NC(=O)C(NC(=O)N3CCN(c4ccccc4)C(=O)C3=O)c3ccccc3)C(=O)N2C1C(=O)O` (single isomer, unassigned) [Compound 43], the MIC Staphylococcus aureus 209p [1] is reported as < 1.57 µg/mL, the MIC Proteus vulgaris 3027 (Proteus vulgaris 3027) is reported as < 1.57 µg/mL and the MIC Esche--richin coil NIHJ (Escherichia coli NIHJ) is reported as < 1.57 µg/mL.

`CC(=O)OCC1=C(C(=O)O)N2C(=O)C(NC(=O)C(NC(=O)N3CCN(C)C(=O)C3=O)c3ccccc3)C2SC1` (single isomer, unassigned) [Compound No. 60] gave an MIC Pseudomonas aeruginosa GN4 (Pseudomonas aeruginosa; Table 6-3, clinical isolate) of 50 µg/mL (≈ 89.4 µM), an MIC Pseudomonas aeruginosa GN 82 (Pseudomonas aeruginosa; Table 6-3, clinical isolate) of 50 µg/mL (≈ 89.4 µM) and an MIC Pseudomonas aeruginosa GN 376 (Pseudomonas aeruginosa; Table 6-3, clinical isolate) of 50 µg/mL (≈ 89.4 µM). The MIC Pseudomonas aeruginosa GN 2987 (Pseudomonas aeruginosa; Table 6-3, clinical isolate) was 50 µg/mL (≈ 89.4 µM).

For `Cc1nnc(SCC2=C(C(=O)O)N3C(=O)C(NC(=O)C(NC(=O)N4CCN(C)C(=O)C4=O)c4ccccc4)C3SC2)s1` (single isomer, unassigned) [Compound No. 62], the MIC Pseudomonas aeruginosa GN4 (Pseudomonas aeruginosa; Table 6-3, clinical isolate) was 100 µg/mL (≈ 158 µM), the MIC Pseudomonas aeruginosa GN 82 (Pseudomonas aeruginosa; Table 6-3, clinical isolate) was 100 µg/mL (≈ 158 µM) and the MIC Pseudomonas aeruginosa GN 376 (Pseudomonas aeruginosa; Table 6-3, clinical isolate) was 100 µg/mL (≈ 158 µM). The MIC Pseudomonas aeruginosa GN 2565 (Pseudomonas aeruginosa; Table 6-3, clinical isolate) was 100 µg/mL (≈ 158 µM).

In the case of `CN1CCN(C(=O)NC(C(=O)NC2C(=O)N3C2SC(C)(C)C3C(=O)O)c2ccc(O)cc2)C(=O)C1=O` (single isomer, unassigned) [compound 48], the MIC Staphylococcus aureus 209p [1] is reported as < 0.4 µg/mL, the MIC Proteus vulgaris 3027 (Proteus vulgaris 3027) is reported as < 0.4 µg/mL and the MIC Esche--richin coil NIHJ (Escherichia coli NIHJ) is reported as < 0.4 µg/mL.

In the case of `CN1CCN(C(=O)N[C@@H](C(=O)N[C@@H]2C(=O)N3[C@@H]2SC(C)(C)[C@@H]3C(=O)OC2OC(=O)c3ccccc32)c2ccccc2)C(=O)C1=O` (single isomer, unassigned) [compound 49], the MIC Staphylococcus aureus 209p [1] is reported as < 0.4 µg/mL.

With `COCOC(=O)C1N2C(=O)C(NC(=O)C(NC(=O)N3CCN(C)C(=O)C3=O)c3ccccc3)C2SC1(C)C` (single isomer, unassigned) [compound 50] the MIC Staphylococcus aureus 209p [1] was < 0.79 µg/mL, the MIC Proteus vulgaris 3027 (Proteus vulgaris 3027) was < 0.79 µg/mL and the MIC Esche--richin coil NIHJ (Escherichia coli NIHJ) was < 0.79 µg/mL.

With `CCCCCCCCN1CCN(C(=O)NC(C(=O)NC2C(=O)N3C2SC(C)(C)C3C(=O)OCOC)c2ccccc2)C(=O)C1=O` (single isomer, unassigned) [compound 51] the MIC Klebsiella pneumoniae (Klebsiella pneumoniae [2]) was < 0.4 µg/mL, the MIC Staphylococcus aureus 209p [1] was < 0.4 µg/mL and the MIC Proteus vulgaris 3027 (Proteus vulgaris 3027) was < 0.4 µg/mL. For the same compound, the MIC Esche--richin coil NIHJ (Escherichia coli NIHJ) was < 0.4 µg/mL.

In the case of `CN1CCN(C(=O)NC(C(=O)NC2C(=O)N3C2SC(C)(C)C3C(=O)OCCN2CCCCC2)c2ccccc2)C(=O)C1=O` (single isomer, unassigned) [compound 53], the MIC Esche--richin coil NIHJ (Escherichia coli NIHJ) is reported as < 0.4 µg/mL.

`CC1(C)S[C@@H]2[C@H](NC(=O)[C@H](NC(=O)N3CCN(C(=O)c4ccc(Cl)cc4)CC3=O)c3ccccc3)C(=O)N2[C@H]1C(=O)O` [Compound 8] was tested, and the MIC Proteus vulgaris 3027 (Proteus vulgaris 3027) was 3.13 µg/mL (≈ 5.1 µM) and the MIC Pseudomonas aeruginosa I.F.C [3] was 100 µg/mL (≈ 163 µM).

For `CCCCCCN1CCN(C(=O)N[C@@H](C(=O)N[C@@H]2C(=O)N3[C@@H]2SC(C)(C)[C@@H]3C(=O)O)c2ccccc2)C(=O)C1` [Compound 13], the MIC Shigella flexneri JS 11215 (Shigella flexneri) was 12.5 µg/mL (≈ 22.3 µM), the MIC Shigella flexneri JS 11839 (Shigella flexneri) was 1.57 µg/mL (≈ 2.81 µM) and the MIC Shigella sonnei JS 11232 (Shigella sonnei) was 12.5 µg/mL (≈ 22.3 µM). It also gave an MIC Shigella sonnei JS 11755 (Shigella sonnei) of 3.13 µg/mL (≈ 5.59 µM), an MIC Staphylococcus aureus F-1 (Staphylococcus aureus) of 12.5 µg/mL (≈ 22.3 µM) and an MIC Staphylococcus aureus F-2 (Staphylococcus aureus) of 1.57 µg/mL (≈ 2.81 µM). The MIC Staphylococcus aureus F-4 (Staphylococcus aureus) was 6.25 µg/mL (≈ 11.2 µM), the MIC Staphylococcus aureus MS 8588 (Staphylococcus aureus) was 3.13 µg/mL (≈ 5.59 µM) and the MIC Staphylococcus aureus MS 8596 (Staphylococcus aureus) was 3.13 µg/mL (≈ 5.59 µM). The MIC Staphylococcus aureus MS 8684 (Staphylococcus aureus) was 3.13 µg/mL (≈ 5.59 µM), the MIC Staphylococcus aureus MS 8713 (Staphylococcus aureus) was 3.13 µg/mL (≈ 5.59 µM) and the MIC Escherichia coli GN 3435 (Escherichia coli) was 3.13 µg/mL (≈ 5.59 µM). For the same compound, the MIC Escherichia coli GN 3452 (Escherichia coli) was 3.13 µg/mL (≈ 5.59 µM), the MIC Escherichia coli GN 3481 (Escherichia coli) was 6.25 µg/mL (≈ 11.2 µM) and the MIC Escherichia coli K-1 (Escherichia coli) was 3.13 µg/mL (≈ 5.59 µM). It also gave an MIC Escherichia coli K-2 (Escherichia coli) of 6.25 µg/mL (≈ 11.2 µM), an MIC Escherichia coli K-4 (Escherichia coli) of 6.25 µg/mL (≈ 11.2 µM) and an MIC Pseudomonas aeruginosa GN 2987 (Pseudomonas aeruginosa; Table 5-3, clinical isolate) of 12.5 µg/mL (≈ 22.3 µM). For the same compound, the MIC Klebsiella pneumoniae GN 917 (Klebsiella pneumoniae [4]) was 12.5 µg/mL (≈ 22.3 µM), the MIC Klebsiella pneumoniae GN 3850 (Klebsiella pneumoniae [4]) was 6.25 µg/mL (≈ 11.2 µM) and the MIC Klebsiella pneumoniae (Klebsiella pneumoniae [2]) was < 1.57 µg/mL. The MIC Staphylococcus aureus 209p [1] was < 1.57 µg/mL, the MIC Proteus vulgaris 3027 (Proteus vulgaris 3027) was < 1.57 µg/mL and the MIC Esche--richin coil NIHJ (Escherichia coli NIHJ) was < 1.57 µg/mL.
